In US8148097B2, “Screening method for identification of compounds with calcium-independent phospholipase A2β (iPLA2β) modulating activity” (Washington University, priority 2005, dated 2012):

Tests used:
iPLA2β [1] = target: T1, iPLA2β (Cricetulus griseus, UniProt A0A3L7I2I8); assay: Covalent acylation (autoacylation) of iPLA2β with [14C]-long chain acyl-CoAs; type: biochemical; conditions: for effect of pretreatment on radiolabeling of iPLA2β with [1-14C]-oleoyl-CoA: 5 mM, 5 min at 30° C. pretreatment, FIG. 7
T1 construct: (His)6; made in house; host or cells: Sf9 insect cells (baculovirus)
T1 sequence (A0A3L7I2I8 1-752 isoform A0A3L7I2I8-2): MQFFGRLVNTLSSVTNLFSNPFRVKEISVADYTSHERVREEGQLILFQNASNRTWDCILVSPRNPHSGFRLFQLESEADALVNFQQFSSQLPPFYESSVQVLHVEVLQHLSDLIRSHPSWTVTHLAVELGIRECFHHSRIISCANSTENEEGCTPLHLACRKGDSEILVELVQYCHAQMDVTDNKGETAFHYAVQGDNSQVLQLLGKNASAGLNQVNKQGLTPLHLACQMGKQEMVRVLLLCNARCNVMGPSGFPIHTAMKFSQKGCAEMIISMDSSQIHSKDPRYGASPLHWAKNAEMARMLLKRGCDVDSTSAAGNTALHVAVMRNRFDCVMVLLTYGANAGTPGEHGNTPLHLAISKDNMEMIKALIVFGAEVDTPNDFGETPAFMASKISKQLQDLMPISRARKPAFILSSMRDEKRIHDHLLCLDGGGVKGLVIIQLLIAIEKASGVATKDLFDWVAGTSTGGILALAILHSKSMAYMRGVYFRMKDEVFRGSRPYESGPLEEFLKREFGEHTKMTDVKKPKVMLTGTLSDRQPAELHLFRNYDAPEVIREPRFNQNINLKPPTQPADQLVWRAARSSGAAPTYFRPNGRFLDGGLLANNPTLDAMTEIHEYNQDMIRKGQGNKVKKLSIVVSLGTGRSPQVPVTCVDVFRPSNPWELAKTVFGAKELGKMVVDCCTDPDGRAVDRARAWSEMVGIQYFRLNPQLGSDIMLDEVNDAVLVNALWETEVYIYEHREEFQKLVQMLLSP
Experimental: FIG. 5—Equivalent amounts of the indicated [1-^14C]-acyl-CoA guests (5 mol %) were incorporated into host POPC (100 μM) vesicles and incubated for 1 hr at 37° C. with equal amounts of either wild-type (WT) iPLA2β(His)6 (peptide disclosed as SEQ ID NO: 4), S465A iPLA2β(His)6 (peptide disclosed as SEQ ID NO: 4), or BEL-pretreated WT iPLA2β(His)6 (peptide disclosed as SEQ ID NO: 4) enzyme as described in Experimental Procedures. Samples were resolved by SDS-PAGE (10% gel), fixed, and dried before visualization by autoradiography.
FIG. 6—Purified iPLA2β(His)6 (peptide disclosed as SEQ ID NO: 4) (2 μM) was incubated with the indicated concentrations of [1-^14C]-oleoyl-CoA present as guest in host POPC (100 μM) vesicles for 1 hr at 37° C. Samples were electrophoresed in parallel with standard amounts (0.5-10 nCi) of [^14C]-BSA of known activity (not shown). The fixed and dried gel was exposed to film and the resultant signals from the [^14C]-BSA were utilized to generate a standard curve utilizing ID software from a Kodak Imagestation to determine the incorporation of [1-^14C]-oleate into iPLA2β.
FIG. 7—Purified iPLA2β(His)6 (peptide disclosed as SEQ ID NO: 4) was incubated with [1-^14C]-oleoyl CoA (10 mol %) incorporated as guest in host POPC vesicles. N-ethylmaleimide and iodoacetamide samples were pretreated with 5 mM of either reagent for 5 min at 30° C. before addition of [1-^14C]-oleoyl-CoA. Samples were incubated with 1 N HCl, 1 N NaOH, or 2 N neutral hydroxylamine for 1 hr at 30° C. as indicated. All samples, except lane 1, were precipitated with CHCl3/MeOH and washed with 70% acetone before SDS-PAGE and autoradiography as described in Experimental Procedures.
FIG. 10—Purified iPLA2β(His)6 (peptide disclosed as SEQ ID NO: 4) was incubated with [1-^14C]-oleoyl CoA (10 mol %) incorporated as guest in host POPC vesicles in the presence of EGTA (5 mM), Ca^2+ (1 mM), CaM (3 μg), or Ca^2+-CaM for 1 h at 37° C. Samples were resolved by SDS-PAGE and the gel was soaked in Amplify fluorographic reagent, dried, and exposed to film as described in Experimental Procedures.
Covalent Modification of […] with [^14C]-long chain Acyl CoAs—Purified recombinant iPLA2β(His)6 (peptide disclosed as SEQ ID NO: 4) was incubated with POPC vesicles containing 10 mol % [1-^14C]-acyl-CoA for 1 h at 37° C. […] Chloroform/methanol precipitation of some samples was performed as described (66) utilizing 15 μg of bovine serum albumin as carrier. In tests to examine the nature of the covalent linkage between oleic acid and iPLA2β, acid (HCl), base (NaOH), and hydroxylamine were added to the indicated concentrations and the samples were incubated at 30° C. for 1 h. Bovine serum albumin (15 μg) and SDS-PAGE loading buffer were then added to each sample prior to dialysis against 50 mM Tris-HCl, pH 6.8 containing 10% glycerol and 1% SDS for 4 h. Samples were electrophoresed by SDS-PAGE, fixed (40% methanol containing 10% acetic acid), stained with Coomassie Blue R-250, incubated in Amplify fluorographic reagent, dried, and exposed to Kodak Biomax MR film for 2-5 days at −80° C.

iPLA2β [2] = target: T1, iPLA2β; assay: iPLA2β-catalyzed acyl-CoA hydrolysis (substrate rate and selectivity); type: biochemical
Experimental: Reactions were terminated by vortexing with butanol and [1-^14C]-palmitic acid extracted into the butanol layer was resolved by TLC and quantified by liquid scintillation spectrometry as described in Experimental Procedures. B, iPLA2β catalyzed hydrolysis of palmitoyl-CoA guest in host POPC/DOPS vesicles. The indicated mol % of [^14C]-palmitoyl-CoA were incorporated into POPC/DOPS (90:10) vesicles (100 μM final vesicle lipid concentration). Each data point represents the average±S.E. for at least 4 separate determinations.
Released [1-^14C]-fatty acid was extracted into butanol by vortexing, resolved by TLC, and quantified by liquid scintillation spectrometry as described in Experimental Procedures. Each data point represents the average ±SE. from 8 separate determinations.
In tests using acyl-CoAs as guests in host phospholipid bilayers, radiolabeled acyl-CoAs were incorporated into POPC/DOPS (90:10 mol %) vesicles before addition to the reaction mix. […] Incorporation of acyl-CoA into the POPC/DOPS vesicles employed was determined as described previously (64). Reactions were terminated by extraction of the released radiolabeled fatty acids into 100 μl butanol, separation of fatty acids from unreacted substrate by thin layer chromatography, and quantitation by scintillation spectroscopy as previous described (65). […]

iPLA2β [3] = target: T1, iPLA2β; assay: iPLA2β palmitoyl-CoA thioesterase (hydrolase) activity, palmitoyl-CoA guest in host vesicles; type: biochemical; conditions: pre-incubated with purified iPLA2β(His)6; palmitoyl-CoA guest in POPC/DOPS host bilayers; read-out: IC50, iPLA2β palm-CoA hydrolase activity
Experimental: The enzyme was then added to 100 mM Tris-HCl, pH 7.2 containing 1 mM EGTA and [1-^14C]-palmitoyl-CoA guest (5 mol %) in POPC (100 μM) host vesicles for 2 min at 37° C. Following extraction into butanol, liberated [1-^14C]-palmitic acid was separated from [1-^14C]-palmitoyl-CoA by TLC and quantified by liquid scintillation spectrometry as described in Experimental Procedures.
FIG. 9—Calcium-independent iPLA2β was pre-incubated in the presence of Ca^2+ (1 mM) or Ca^2+-CaM (3 μg) on ice before addition to 95 μM POPC containing either 5 mol % [1-^14C]-POPC or [1-^14C]-palmitoyl-CoA in 100 mM Tris-HCl, pH 7.2. After incubation at 37° C. for 3 min, reactions were terminated by vortexing in the presence of butanol and released radiolabeled fatty acids were resolved by TLC and quantitated by liquid scintillation spectrometry as described in Experimental Procedures.
Phospholipase A2 and Acyl-CoA Hydrolase Enzymatic Assays—Purified recombinant iPLA2β(His)6 (peptide disclosed as SEQ ID NO: 4) (0.1-1 μg) was incubated with radiolabeled phospholipid or acyl-CoA in 25 mM Tris-HCl, pH 7.2 containing 1 mM EGTA (200 μl final volume) for 1-2 mm at 37° C. […] Incorporation of acyl-CoA into the POPC/DOPS vesicles employed was determined as described previously (64). […]

iPLA2γ [4] = target: T2, iPLA2γ (Homo sapiens, UniProt Q9NP80); conditions: racemic BEL, previous work; read-out: IC50, iPLA2γ phospholipase A2 activity; cited from earlier work
T2 sequence (Q9NP80 1-782): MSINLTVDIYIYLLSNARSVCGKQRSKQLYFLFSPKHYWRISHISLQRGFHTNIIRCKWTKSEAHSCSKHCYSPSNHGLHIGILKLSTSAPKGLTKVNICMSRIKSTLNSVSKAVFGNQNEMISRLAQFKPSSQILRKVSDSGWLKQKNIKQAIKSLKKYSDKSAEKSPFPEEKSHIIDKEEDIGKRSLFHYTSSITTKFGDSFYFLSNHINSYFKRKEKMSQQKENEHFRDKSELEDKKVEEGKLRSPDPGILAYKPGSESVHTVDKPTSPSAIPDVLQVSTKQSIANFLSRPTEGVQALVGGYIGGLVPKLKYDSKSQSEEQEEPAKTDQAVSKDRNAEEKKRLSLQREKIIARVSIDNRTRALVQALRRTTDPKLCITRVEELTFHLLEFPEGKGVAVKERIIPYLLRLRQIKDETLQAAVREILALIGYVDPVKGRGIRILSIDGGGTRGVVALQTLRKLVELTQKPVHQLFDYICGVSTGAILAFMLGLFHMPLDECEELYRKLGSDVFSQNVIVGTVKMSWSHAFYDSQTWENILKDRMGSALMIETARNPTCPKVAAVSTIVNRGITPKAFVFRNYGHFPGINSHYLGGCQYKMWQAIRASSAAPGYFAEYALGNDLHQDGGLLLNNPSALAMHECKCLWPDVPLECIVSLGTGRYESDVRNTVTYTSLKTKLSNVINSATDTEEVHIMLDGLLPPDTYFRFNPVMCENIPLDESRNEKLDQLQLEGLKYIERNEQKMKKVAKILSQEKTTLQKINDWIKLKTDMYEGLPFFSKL

iPLA2β [5] = target: T1, iPLA2β; assay: Cardiolipin and phospholipid hydrolysis catalyzed by iPLA2β and inhibition by BEL; type: biochemical; conditions: iPLA2b + BEL 10 μM, 20 min 37° C.
Experimental: (§1) Purified calcium-independent phospholipase A2 (iPLA2β) and calcium-independent phospholipase A2γ were incubated with vesicles containing 10% cardiolipin (tetra 18:1) for 20 min at 37° C.

iPLA2γ [6] = target: T2, iPLA2γ; assay: Cardiolipin and phospholipid hydrolysis catalyzed by iPLA2γ and inhibition by BEL; type: biochemical; conditions: iPLA2g + BEL 10 μM, 20 min 37° C.
Experimental: as §1

[7] = PAPC vesicles with 10 mol % tetra-18:1 CL

In the case of `CCN1C(=O)C=CC1=O` [N-ethylmaleimide], the “effect of pretreatment on radiolabeling of iPLA2β with [1-14C]-oleoyl-CoA” value (iPLA2β [1]) is reported as “decreased radiolabeling”.
For `CC(C)(COP(=O)(O)OP(=O)(O)OC[C@H]1O[C@@H](n2cnc3c(N)ncnc32)[C@H](O)[C@@H]1OP(=O)(O)O)[C@@H](O)C(=O)NCCC(=O)NCCS` [CoASH], the “inhibition of iPLA2β by high concentrations of CoASH” value (iPLA2β [2]) was “not inhibited”.
In the case of `CCCCC/C=C\C/C=C\C/C=C\C/C=C\CCC[14C](=O)SCCNC(=O)CCNC(=O)[C@H](O)C(C)(C)COP(=O)(O)OP(=O)(O)OC[C@H]1O[C@@H](n2cnc3c(N)ncnc32)[C@H](O)[C@@H]1OP(=O)(O)O` [[1-^14C]-arachidonoyl-CoA], the “signal intensity of iPLA2β acylation, fold less than with [1-14C]-oleoyl-CoA” value (iPLA2β [1]; wild-type iPLA2β, FIG. 5) is reported as “≈ 25 fold”.
Work on `O=C1O/C(=C/Br)CC[C@@H]1c1cccc2ccccc12` [(R)-BEL] yielded an IC50 (iPLA2β [3]) of 800 nM.
With `CCCCCCCCCCCCCCCC(=O)SCCNC(=O)CCNC(=O)[C@H](O)C(C)(C)COP(=O)(O)OP(=O)(O)OC[C@H]1O[C@@H](n2cnc3c(N)ncnc32)[C@H](O)[C@@H]1OP(=O)(O)O` [palmitoyl-CoA] the “maximal rate of palmitoyl-CoA thioesterase activity catalyzed by iPLA2β” value (iPLA2β [2]; at 2.5 μM palmitoyl-CoA, FIG. 1A) was “≈ 250 nmol palmitic acid×min^−1×mg^−1 protein”.
In the case of `NC(=O)CI` [iodoacetamide], the “effect of pretreatment on radiolabeling of iPLA2β with [1-14C]-oleoyl-CoA” value (iPLA2β [1]) is reported as “decreased radiolabeling”.
In the case of `O=C1O/C(=C/Br)CCC1c1cccc2ccccc12` (racemic) [BEL, (E)-6-(bromomethylene)-3-(1-naphthalenyl)-2H-tetrahydropyran-2-one], the “effect of BEL pretreatment on iPLA2β acylation with palmitoyl-CoA and stearoyl-CoA” value (iPLA2β [1]; BEL-pretreated iPLA2β, FIG. 5) is listed as “marked increases in acylation”, the IC50 (iPLA2γ [4]) is listed as roughly 3000 nM and the “16:0 FA” value (iPLA2β [5]) is listed as 0.96 nmol/reaction. The “18:1 FA” value (iPLA2β [5]) was 0.61 nmol/reaction, the “20:4 FA” value (iPLA2β [5]) was 0.50 nmol/reaction and the “Di-18:1 LysoCL” value (iPLA2β [5]) was 0.15 nmol/reaction. The “Tri-18:1 LysoCL” value (iPLA2β [5]) was 0.10 nmol/reaction, the “Tetra-18:1 CL” value (iPLA2β [5]; [7]) was 1.95 nmol/reaction and the “16:0 FA” value (iPLA2γ [6]) was 3.07 nmol/reaction. For the same compound, the “18:1 FA” value (iPLA2γ [6]) was 0.54 nmol/reaction, the “20:4 FA” value (iPLA2γ [6]) was 0.54 nmol/reaction and the “Di-18:1 LysoCL” value (iPLA2γ [6]) was 0.12 nmol/reaction. For the same compound, the “Tri-18:1 LysoCL” value (iPLA2γ [6]) was 0.14 nmol/reaction and the “Tetra-18:1 CL” value (iPLA2γ [6]; [7]) was 2.18 nmol/reaction.
`O=C1O/C(=C/Br)CC[C@H]1c1cccc2ccccc12` [(S)-BEL] gave an IC50 (iPLA2β [3]) of roughly 100 nM.
